Earlier results in patent US20210023011A1, “METHOD AND SYSTEM FOR PRODUCING HIGH PURITY VANCOMYCIN HYDROCHLORIDE” (ZHEJIANG MEDICINE CO., LTD, priority 2013, published 2021).
Where a name gives a salt, the structure may show the parent alone.

Key:
[1] = lyophilized powder

Compound: CN[C@H](CC(C)C)C(=O)N[C@H]1C(=O)N[C@@H](CC(N)=O)C(=O)N[C@H]2C(=O)N[C@H]3C(=O)N[C@H](C(=O)N[C@H](C(=O)O)c4cc(O)cc(O)c4-c4cc3ccc4O)[C@H](O)c3ccc(c(Cl)c3)Oc3cc2cc(c3O[C@@H]2O[C@H](CO)[C@@H](O)[C@H](O)[C@H]2O[C@H]2C[C@](C)(N)[C@H](O)[C@H](C)O2)Oc2ccc(cc2Cl)[C@H]1O [vancomycin hydrochloride, Vancomycin hydrochloride]
- decrease of chromatographic purity (lyophilization at low temperature): ≥ 0.5%
- decrease of purity level of the solution (vacuum drying at 40° C. within 8 hours): more than 1.0%
- solubility in alcohol [1]: slightly soluble
- solubility in water [1]: freely soluble
